Assay results as given in US11555210B2, “Microbe having increased tolerance to phenolic fermentation inhibitors” (University of Ottawa, priority 2018, dated 2023).

Experiments:
bna7Δ (YKB4649) [1] = assay: serial dilution spot assay on YPD agar plates; type: cell-based, S. cerevisiae; details: 10 mM FA, 35 mM 4-HBA or 1 mM CA, 48 hr at 30° C.
Method: (§1) In addition, deletion mutants were generated for genes involved in the tryptophan catabolic pathway and their growth was assayed on solid media containing 10 mM ferulic acid. In particular, wild type yeast (BY4741) along with deletion mutants aro8Δ (YKB4799), bna7Δ (YKB4649), bna2Δ (YKB4798), bna6Δ (YKB4844), bna5Δ (YKB4845), bna4Δ (YKB4846) and bna1Δ (YKB4729) were grown to mid log phase ([…] 0.5-0.6) in YPD medium prior to being diluted to an OD600 of 0.1. Four 10-fold serial dilutions were spotted onto YPD agar plates either containing 10 mM ferulic acid or no ferulic acid. Plates were incubated for 48 hr at 30° C. Images of the plates were taken with the ChemiDoc XRS Molecular Imaging system (Biorad) and images are representative of three biological replicates.
Experiments were also conducted to determine if deletion of BNA7 could provide protection to 4-hydroxybenzoic acid or coniferyl aldehyde (CA). Wild type (BY4741) and bna7A (YKB4649) strains were grown to mid log phase in YPD medium prior to being diluted into fresh medium to an OD600 of 0.1. Four 10-fold serial dilutions were spotted onto YPD agar plates containing either no compound (Untreated), 10 mM ferulic acid (FA), 35 mM 4-hydroxybenzoic acid (4-HBA) or 1 mM coniferyl aldehyde (CA). Plates were incubated for 48 hr at 30° C. and images are representative of three biological replicates.

wild-type yeast (BY4741) = assay: ROS measurement by H2DCFDA fluorescence microscopy; type: cell-based, S. cerevisiae; details: 2 mM CA, 1 hour at 30° C.; for subcellular distribution of induced ROS: 10 mM FA or 50 mM 4-HBA
Method: Measurement of ROS was performed as previously described (Kennedy et al., 2016, Sci Rep. 6, 19332). Briefly cells were incubated with 10 μM 2′,7′-dichlorodihydrofluorescein diacetate (H2DCFDA; Invitrogen cat. #D399) for 15 min in the dark. […] An aliquot of 5 μL was spotted onto glass slides and covered with a cover slip prior to imaging. All images were acquired using a Leica DMI 6000 florescent microscope (Leica Microsystems GmbH, Wetzler Germany), equipped with a Sutter DG4 light source (Sutter Instruments, California, USA), Ludl emission filter wheel with Chroma band pass emission filters (Ludl Electronic Products Ltd., NY, USA) and Hamamatsu Orca AG camera (Hamamatsu Photonics, Herrsching am Ammersee, Germany). Images were acquired at 0.2 μm steps across 6 μm using a 63× oil-immersion objective with a 1.4 numerical aperture. Analysis of H2DCFDA fluorescence was performed using Velocity Software V4 (Perkin Elmer). Image J software was used to quantify the H2DCFDA fluorescence signal in cells as described by Schneider et al (Schneider et al., 2012, Nature Methods, 9, 671-675) with a slight modification. Briefly, background fluorescence was subtracted from the images and the total fluorescence of all the cells in the image was measured and divided by the number of cells in the image. The images contained a minimum of 100 cells. The ratio of fluorescence per cell of treated cultures was divided by that of untreated cultures to eliminate background endogenous ROS production.

[2] = system: Saccharomyces cerevisiae ethanol red; details: commercial Saccharomyces cerevisiae ethanol red; Adeboye et al., 2014; cited from earlier work
Zwf1-GFP = Zwf1-GFP fluorescence microscopy; type: cell-based, S. cerevisiae; details: 2 mM CA for 120 min at 30° C. (ρ=9.69E-5); ferulic acid 10 mM
Method: For the microscopy studies, wild type cells expressing endogenously tagged Zwf1-GFP (YKB4825) were grown to mid log in YPD, prior to being washed and resuspended in YPD medium (Untreated) or YPD medium containing 2 mM coniferyl aldehyde (CA) for 120 min at 30° C. Images (FIG. 8A) are representative of three independent experiments where a minimum of 100 cells each were imaged. Scale bar represents 10 μm.

bna7Δ (YKB4649) [3] = assay: automated growth curve analysis in YPD liquid medium; type: cell-based, S. cerevisiae; details: 10 mM ferulic acid, 30° C., 72 hr
Method: The agar-based chemogenomic screen was confirmed by measuring the growth rate of the identified mutants in liquid YPD medium supplemented with the phenolic compounds. Briefly, overnight cultures of the mutant strains were inoculated into fresh YPD medium and strains were incubated at 30° C. until they reached the mid log phase ([…] 0.5-0.6), prior to being diluted to a final OD600 of 0.1 in a BioScreen CTM Honeycomb microplate. The growth assays were performed for each mutant in triplicate in YPD alone (control) or YPD medium supplemented with ferulic acid, 4-hydroxybenzoic acid or coniferyl aldehyde. Using a BioScreen CTM plate reader, the cultures were incubated at 30° C. for 72 hours and OD600 readings were taken every 15 min to plot growth curves. Data from the BioScreen CTM were analyzed with the PRECOG software (Fernandez-Ricaud et al., […], Nucleic acids research. 41, W591-6) to obtain the doubling time of all the strains. A PRECOG score for each of the strains tested was calculated as the ratio of the doubling time in the presence of the phenolic to the doubling time in the absence of these phenolic compounds. Using a cut-off PRECOG score of >2 and <0.4 strains were identified that were sensitive or tolerant, respectively, to the phenolic compounds. […]

[4] = system: mutants aro8Δ, bna2Δ, bna6Δ, bna5Δ, bna4Δ and bna1Δ; assay: serial dilution spot assay on YPD agar plates; type: cell-based, S. cerevisiae; details: 10 mM ferulic acid, 48 hr at 30° C.
Method: as §1

bna7Δ cells = assay: ROS measurement by H2DCFDA fluorescence microscopy; type: cell-based, S. cerevisiae; details: 10 mM ferulic acid for 2 hr; not statistically significant (ρ=0.756)
Method: For all microscopy experiments overnight cultures of wild-type yeast grown at 30° C. were re-suspended at an OD600 of 0.1 in YPD medium and allowed to reach mid-log phase prior to imaging. Measurement of ROS was performed as previously described (Kennedy et al., 2016, Sci Rep. 6, 19332). Briefly cells were incubated with 10 μM 2′,7′-dichlorodihydrofluorescein diacetate (H2DCFDA; Invitrogen cat. #D399) for 15 min in the dark. Cells were washed in sterile PBS to remove traces of the dye after which they were re-suspended in YPD medium alone, or YPD supplemented with either 2 mM coniferyl aldehyde, […]
Analysis of H2DCFDA fluorescence was performed using Velocity Software V4 (Perkin Elmer). Image J software was used to quantify the H2DCFDA fluorescence signal in cells as described by Schneider et al (Schneider et al., 2012, Nature Methods, 9, 671-675) with a slight modification. Briefly, background fluorescence was subtracted from the images and the total fluorescence of all the cells in the image was measured and divided by the number of cells in the image. […] The ratio of fluorescence per cell of treated cultures was divided by that of untreated cultures to eliminate background endogenous ROS production. […]

Row | Structure (SMILES) | resistance of bna7Δ / protection by deletion of BNA7 (bna7Δ (YKB4649) [1]) | subcellular distribution of induced ROS (wild-type yeast (BY4741)) | concentration at which the compound kills the yeast [2] [mM] | Zwf1-GFP fluorescence signal/cell (Zwf1-GFP) | ROS formation (H2DCFDA fluorescence) (wild-type yeast (BY4741); 10 mM FA, 50 mM 4-HBA or hydrogen peroxide) | growth (OD600) of bna7Δ relative to wild-type (bna7Δ (YKB4649) [3]) | effect of gene deletion on ferulic acid tolerance [4] | ROS signal in bna7Δ compared to wild-type (bna7Δ cells)
1 | O=C(O)c1ccc(O)cc1 [4-hydroxybenzoic acid] | does not provide protection | distributed throughout the cell | 11 | no increase | – | – | – | –
2 | OO [hydrogen peroxide] | – | – | – | – | induced the formation of green fluorescence signal throughout the cell | – | – | –
3 | COc1cc(C=CC(=O)O)ccc1O [ferulic acid, 4-hydroxy-3-methoxycinnamic acid] | resistant | distributed throughout the cell | 5 | no increase | – | increased growth relative to the wild-type strain | no effect | slight reduction of ROS
